The target in assay [1] is Calcium/calmodulin-dependent protein kinase type II subunit beta (Homo sapiens) (UniProt Q13554). The experiment in a line: Inhibition of human CaMK2beta assessed as residual activity at 1 uM relative to control.
Assay [2] deals with Calcium/calmodulin-dependent protein kinase type 1 (Homo sapiens) (UniProt Q14012). The experiment in a line: Inhibition of human CaMK1 assessed as residual activity at 1 uM relative to control.
For assay [3], the target named is T1, Phosphatidylinositol 3-kinase C2 domain-containing subunit gamma (Homo sapiens) (UniProt O75747).
T1 sequence (whole entry): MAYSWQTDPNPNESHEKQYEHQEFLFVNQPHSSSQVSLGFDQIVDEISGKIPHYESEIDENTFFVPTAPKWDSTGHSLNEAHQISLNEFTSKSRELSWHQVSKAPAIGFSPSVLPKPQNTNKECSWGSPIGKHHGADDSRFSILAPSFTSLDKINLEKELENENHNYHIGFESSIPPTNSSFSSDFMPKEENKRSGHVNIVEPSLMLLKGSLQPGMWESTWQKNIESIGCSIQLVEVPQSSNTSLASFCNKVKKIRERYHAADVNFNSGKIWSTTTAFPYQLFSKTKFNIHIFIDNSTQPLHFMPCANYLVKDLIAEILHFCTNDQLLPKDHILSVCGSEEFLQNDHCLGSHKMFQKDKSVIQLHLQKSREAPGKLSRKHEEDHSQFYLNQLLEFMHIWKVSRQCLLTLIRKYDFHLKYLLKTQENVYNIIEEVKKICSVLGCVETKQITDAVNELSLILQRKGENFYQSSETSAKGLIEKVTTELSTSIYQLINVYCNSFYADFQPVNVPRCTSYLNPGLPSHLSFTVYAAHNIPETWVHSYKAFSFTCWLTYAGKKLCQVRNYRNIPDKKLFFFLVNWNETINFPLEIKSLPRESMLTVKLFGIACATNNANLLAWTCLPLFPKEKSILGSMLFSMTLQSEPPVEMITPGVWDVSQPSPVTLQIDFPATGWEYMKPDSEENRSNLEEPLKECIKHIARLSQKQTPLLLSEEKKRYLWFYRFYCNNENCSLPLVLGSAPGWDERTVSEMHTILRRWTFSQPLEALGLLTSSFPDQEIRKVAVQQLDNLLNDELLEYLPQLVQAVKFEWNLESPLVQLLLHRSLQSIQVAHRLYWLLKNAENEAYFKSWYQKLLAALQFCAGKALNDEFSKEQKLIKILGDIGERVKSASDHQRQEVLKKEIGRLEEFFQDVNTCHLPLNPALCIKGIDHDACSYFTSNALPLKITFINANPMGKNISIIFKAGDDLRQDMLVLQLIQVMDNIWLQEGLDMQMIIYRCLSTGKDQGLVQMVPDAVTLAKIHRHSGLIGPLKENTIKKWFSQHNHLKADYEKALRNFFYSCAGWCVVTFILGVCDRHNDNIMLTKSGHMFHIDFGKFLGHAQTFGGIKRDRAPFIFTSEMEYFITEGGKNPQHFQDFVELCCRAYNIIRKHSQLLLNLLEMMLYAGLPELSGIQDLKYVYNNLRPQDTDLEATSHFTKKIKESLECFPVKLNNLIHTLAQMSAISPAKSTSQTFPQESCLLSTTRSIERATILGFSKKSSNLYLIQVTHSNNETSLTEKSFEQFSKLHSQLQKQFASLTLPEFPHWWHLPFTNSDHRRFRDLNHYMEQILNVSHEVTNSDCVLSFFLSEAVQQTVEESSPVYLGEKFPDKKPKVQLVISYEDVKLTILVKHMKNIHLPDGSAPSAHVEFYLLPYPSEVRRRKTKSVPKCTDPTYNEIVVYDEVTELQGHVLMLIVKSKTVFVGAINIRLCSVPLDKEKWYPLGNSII
The experiment in a line: Inhibition of human PI3KC2gamma assessed as residual activity at 1 uM relative to control.

Assay [4] addresses T2, Serine/threonine-protein kinase STK11 (Homo sapiens) (UniProt Q15831).
T2 sequence (whole entry): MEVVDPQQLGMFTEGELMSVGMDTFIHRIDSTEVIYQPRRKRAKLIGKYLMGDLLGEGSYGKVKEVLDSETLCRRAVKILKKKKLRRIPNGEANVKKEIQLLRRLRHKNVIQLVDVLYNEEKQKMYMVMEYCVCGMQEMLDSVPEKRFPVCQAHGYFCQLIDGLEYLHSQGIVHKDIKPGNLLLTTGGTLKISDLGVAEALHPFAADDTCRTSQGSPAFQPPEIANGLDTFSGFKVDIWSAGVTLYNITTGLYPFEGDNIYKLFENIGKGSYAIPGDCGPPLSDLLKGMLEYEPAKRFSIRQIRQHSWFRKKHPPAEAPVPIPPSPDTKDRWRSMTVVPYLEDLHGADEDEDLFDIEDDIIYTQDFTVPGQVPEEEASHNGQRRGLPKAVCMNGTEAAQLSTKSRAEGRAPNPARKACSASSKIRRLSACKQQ
The assay is described as follows: Inhibition of human LKB1 assessed as residual activity at 1 uM relative to control.

Assay [5] addresses Casein kinase I isoform gamma-1 (Homo sapiens) (UniProt Q9HCP0). The experiment in a line: Inhibition of human CK1gamma1 assessed as residual activity at 1 uM relative to control.
For assay [6], the target named is Tyrosine-protein kinase Lyn (Homo sapiens) (UniProt P07948). The experiment in a line: Inhibition of human LYN assessed as residual activity at 1 uM relative to control.
Chain of Tyrosine-protein kinase Lyn (Homo sapiens) (P07948 2-512 limits assumed): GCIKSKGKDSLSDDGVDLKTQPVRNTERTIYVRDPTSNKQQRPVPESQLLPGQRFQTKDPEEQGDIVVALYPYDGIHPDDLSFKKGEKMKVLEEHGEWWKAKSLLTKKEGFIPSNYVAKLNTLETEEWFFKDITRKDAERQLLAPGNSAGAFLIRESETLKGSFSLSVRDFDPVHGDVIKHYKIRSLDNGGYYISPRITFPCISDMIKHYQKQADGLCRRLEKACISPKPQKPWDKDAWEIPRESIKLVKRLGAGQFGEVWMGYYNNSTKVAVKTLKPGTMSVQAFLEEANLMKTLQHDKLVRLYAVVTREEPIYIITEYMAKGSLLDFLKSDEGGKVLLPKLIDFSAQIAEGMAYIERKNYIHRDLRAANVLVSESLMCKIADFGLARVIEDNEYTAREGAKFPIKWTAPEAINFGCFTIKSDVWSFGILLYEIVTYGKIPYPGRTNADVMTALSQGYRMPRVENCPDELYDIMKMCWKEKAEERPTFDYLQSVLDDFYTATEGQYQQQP
The subject of assay [7] is Proto-oncogene tyrosine-protein kinase receptor Ret (Homo sapiens), P07949 [V804M]. The assay is described as follows: Inhibition of human RET V804M mutant assessed as residual activity at 1 uM relative to control.
Assay [8] concerns the target Tyrosine-protein kinase Yes (Homo sapiens) (UniProt P07947). The assay is described as follows: Inhibition of human YES assessed as residual activity at 1 uM relative to control.

Chain of Proto-oncogene tyrosine-protein kinase receptor Ret (Homo sapiens), P07949 [V804M] (P07949 whole entry V804M): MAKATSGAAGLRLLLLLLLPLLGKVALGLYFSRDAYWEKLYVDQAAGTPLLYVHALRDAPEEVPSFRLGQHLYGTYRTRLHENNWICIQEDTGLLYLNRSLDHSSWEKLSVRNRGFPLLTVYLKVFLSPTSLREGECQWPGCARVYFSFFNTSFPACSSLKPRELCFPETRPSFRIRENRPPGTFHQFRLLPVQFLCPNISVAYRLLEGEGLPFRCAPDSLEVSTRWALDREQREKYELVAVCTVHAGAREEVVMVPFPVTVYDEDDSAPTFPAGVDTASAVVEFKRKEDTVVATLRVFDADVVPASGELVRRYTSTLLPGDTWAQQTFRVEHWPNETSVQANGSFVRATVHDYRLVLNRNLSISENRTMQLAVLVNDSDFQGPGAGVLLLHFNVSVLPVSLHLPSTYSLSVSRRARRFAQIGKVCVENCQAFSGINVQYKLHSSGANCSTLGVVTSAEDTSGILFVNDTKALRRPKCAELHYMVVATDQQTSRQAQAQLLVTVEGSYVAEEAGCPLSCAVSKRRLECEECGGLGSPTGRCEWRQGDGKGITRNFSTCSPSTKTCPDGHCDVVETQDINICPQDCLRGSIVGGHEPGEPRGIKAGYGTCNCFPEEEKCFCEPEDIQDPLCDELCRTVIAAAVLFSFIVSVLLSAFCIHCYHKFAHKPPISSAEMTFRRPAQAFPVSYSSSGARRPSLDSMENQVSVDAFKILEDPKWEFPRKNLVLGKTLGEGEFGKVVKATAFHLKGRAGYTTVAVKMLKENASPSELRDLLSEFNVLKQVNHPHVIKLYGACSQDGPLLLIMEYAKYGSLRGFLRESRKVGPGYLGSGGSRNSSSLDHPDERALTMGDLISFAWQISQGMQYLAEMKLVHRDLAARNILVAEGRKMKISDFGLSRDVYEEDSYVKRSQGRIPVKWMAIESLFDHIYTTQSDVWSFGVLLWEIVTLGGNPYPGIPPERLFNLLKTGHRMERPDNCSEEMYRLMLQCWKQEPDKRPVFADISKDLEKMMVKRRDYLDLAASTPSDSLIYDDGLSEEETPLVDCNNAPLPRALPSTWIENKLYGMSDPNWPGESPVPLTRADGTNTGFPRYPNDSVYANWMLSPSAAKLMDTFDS
Chain of Calcium/calmodulin-dependent protein kinase type II subunit beta (Homo sapiens) (Q13554 whole entry): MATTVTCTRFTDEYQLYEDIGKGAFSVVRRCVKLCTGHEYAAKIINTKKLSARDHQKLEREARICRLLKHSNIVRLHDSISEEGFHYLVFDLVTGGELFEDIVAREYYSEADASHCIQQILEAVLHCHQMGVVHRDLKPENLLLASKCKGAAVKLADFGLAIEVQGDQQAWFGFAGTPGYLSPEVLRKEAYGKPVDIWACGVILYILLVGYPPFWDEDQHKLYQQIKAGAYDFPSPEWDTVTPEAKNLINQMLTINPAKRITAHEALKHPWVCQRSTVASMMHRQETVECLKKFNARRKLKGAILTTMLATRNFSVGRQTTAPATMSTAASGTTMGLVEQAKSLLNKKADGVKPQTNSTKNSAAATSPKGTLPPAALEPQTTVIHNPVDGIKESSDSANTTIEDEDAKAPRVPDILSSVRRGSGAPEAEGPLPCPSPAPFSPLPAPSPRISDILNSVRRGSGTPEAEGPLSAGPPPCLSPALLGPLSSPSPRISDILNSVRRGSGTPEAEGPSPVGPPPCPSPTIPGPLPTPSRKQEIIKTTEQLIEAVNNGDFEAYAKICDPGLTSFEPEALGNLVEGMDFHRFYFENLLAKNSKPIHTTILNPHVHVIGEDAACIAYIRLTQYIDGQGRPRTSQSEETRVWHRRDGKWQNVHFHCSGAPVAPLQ
Chain of Casein kinase I isoform gamma-1 (Homo sapiens) (Q9HCP0 whole entry, looked up, canonical isoform): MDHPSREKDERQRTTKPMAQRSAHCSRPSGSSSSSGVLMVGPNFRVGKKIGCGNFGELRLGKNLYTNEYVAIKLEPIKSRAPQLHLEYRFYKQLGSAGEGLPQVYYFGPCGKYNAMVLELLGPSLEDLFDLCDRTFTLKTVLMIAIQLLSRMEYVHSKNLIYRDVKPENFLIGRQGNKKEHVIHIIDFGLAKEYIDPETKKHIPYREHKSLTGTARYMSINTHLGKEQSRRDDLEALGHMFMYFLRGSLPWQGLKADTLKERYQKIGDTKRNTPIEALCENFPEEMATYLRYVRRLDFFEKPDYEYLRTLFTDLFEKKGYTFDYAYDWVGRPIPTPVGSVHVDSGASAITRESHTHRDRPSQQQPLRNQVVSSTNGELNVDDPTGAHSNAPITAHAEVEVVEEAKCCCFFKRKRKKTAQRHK
Chain of Calcium/calmodulin-dependent protein kinase type 1 (Homo sapiens) (Q14012 whole entry, looked up, the tested form may be a part): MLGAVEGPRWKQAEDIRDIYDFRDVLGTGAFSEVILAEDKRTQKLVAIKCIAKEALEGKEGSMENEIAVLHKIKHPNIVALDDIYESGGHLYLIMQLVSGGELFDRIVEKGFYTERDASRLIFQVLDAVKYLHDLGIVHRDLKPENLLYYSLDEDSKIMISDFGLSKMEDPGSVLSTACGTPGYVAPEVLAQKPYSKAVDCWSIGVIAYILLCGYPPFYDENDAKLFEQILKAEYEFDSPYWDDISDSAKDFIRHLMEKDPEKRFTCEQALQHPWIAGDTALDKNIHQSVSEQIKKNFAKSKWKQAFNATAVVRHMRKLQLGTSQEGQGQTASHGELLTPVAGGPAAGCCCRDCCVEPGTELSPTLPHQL
Chain of Tyrosine-protein kinase Yes (Homo sapiens) (P07947 2-543 limits assumed): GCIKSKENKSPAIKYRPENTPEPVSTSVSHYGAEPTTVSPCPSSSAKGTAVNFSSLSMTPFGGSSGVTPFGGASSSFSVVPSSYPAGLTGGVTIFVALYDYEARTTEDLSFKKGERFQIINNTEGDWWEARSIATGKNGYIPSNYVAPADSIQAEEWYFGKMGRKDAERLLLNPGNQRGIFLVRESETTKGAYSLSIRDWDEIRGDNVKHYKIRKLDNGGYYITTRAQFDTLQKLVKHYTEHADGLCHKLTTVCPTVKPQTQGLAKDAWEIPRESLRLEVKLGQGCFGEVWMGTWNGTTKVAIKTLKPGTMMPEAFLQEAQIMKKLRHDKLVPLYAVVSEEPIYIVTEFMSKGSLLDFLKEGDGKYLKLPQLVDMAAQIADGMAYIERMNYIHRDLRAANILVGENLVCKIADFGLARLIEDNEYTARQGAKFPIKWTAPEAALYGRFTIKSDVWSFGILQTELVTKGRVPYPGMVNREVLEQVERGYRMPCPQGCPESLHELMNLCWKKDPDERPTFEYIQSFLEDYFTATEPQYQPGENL

With `COc1ccc(-c2nc3cc(-c4csc(C(=O)NCC(C)(C)C)c4)cnc3[nH]2)cc1`, the Activity in assay [1] came to 98%; in assay [2] it was 97%; in assay [3] it was 94%; in assay [4], 81%; in assay [5], 65%; in assay [6], 61%. The Activity in assay [7] was 24%; in assay [8], 15%.
Turning to `COc1ccc(-c2nc3cc(-c4csc(C(=O)NCCC(C)C)c4)cnc3[nH]2)cc1`, the Activity in assay [1] came to 97%; in assay [2], 83%; in assay [3], 94%; in assay [4], 97%; in assay [5], 29%; in assay [6], 39%. The results for the Activity in assay [7] and in assay [8] were 9% and 5%, respectively.
For `COc1ccc(-c2nc3cc(-c4csc(C(=O)NCC(C)C)c4)cnc3[nH]2)cc1`, the Activity is 96% in assay [1]; 102% in assay [2]; 92% in assay [3]; 92% in assay [4]; 44% in assay [5]; 46% in assay [6]. For the same compound, the figures for the Activity in assay [7] and in assay [8] were 15% and 6%, respectively.

For the origin of these results see ChEMBL document CHEMBL3124838, “Discovery of 6-aryl-azabenzimidazoles that inhibit the TBK1/IKK-ε kinases” (Bioorg Med Chem Lett, 2014).
